What was measured:
blood cells = assay: D5-ethanol release in blood incubated with D5-EG or D5-EG-ME (headspace measurement); assay type: cell-based; details: human blood, 37° C., 2 hours
Description: Aim—The following experiment was performed to compare the levels of D5-ethanol produced by blood cells from both D5-ethyl-βD-glucuronide and the D5-ethyl-βD-glucuronide-methyl ester impurity. To understand how the probe behaves in human blood. To determine the background cleavage of the probe (D5-ethyl-βD-glucuronide) and the methyl ester (D5-ethyl-βD-glucuronide-methyl ester) in blood at different concentrations. The cleaved D5-ethanol was extracted from the headspace of the blood and measured with the D5-ethanol analytical method.
• Dilute D5-ethyl-βD-glucuronide in PBS to 1 ug/ul. • Dilute 10 ul of this in 90 ul PBS to 100 ng/ul to use for smaller doses. • Blood drawn on the same day will be despatched to OML after it has been screened. • Aliquot 600 ul of blood into ITEX headspace vials. 10 vials for probe samples and 10 vials for methyl ester samples. • Add indicated concentration of D5-ethyl-βD-glucuronide (Table 1) and D5-ethyl-bD-glucuronide meth methyl ester (Table 2) in each vial. • Incubate all samples at 37° C. for 2 hours in the water bath. • After 2 hours add 100 uM D-saccharic acid-1,4-lactone with a syringe through septum of each ITEX vial and mix gently to inhibit β-glucuronidase activity and put on ice (4° C.) • Place samples on ITEX autosampler and measure D5-ethanol with D5-ethanol analytical method
Results—β-glucuronidase is only expected to be present intracellularly in blood cells. D5-ethyl-βD-glucuronide (D5-EG) is not cell permeable and would therefore not enter into the cells to get cleaved by b-glucuronidase to produce D5-ethanol. Low D5-ethanol levels are therefore expected in blood when incubated with D5-ethyl-βD-glucuronide.
D5-ethyl-βD-glucuronide-methyl ester (D5-EG-ME) is expected to be more cell permeable. If this is the case it would be able to enter into the cell to get cleaved by intracellular β-glucuronidase resulting in an increased in D5-ethanol production.

β-glucuronidase = molecular target: T1, β-glucuronidase (Homo sapiens, UniProt P08236); assay: Breath test: D5-ethanol in exhaled breath after intravenous probe administration (TD-GC-MS); assay type: in vivo; details: for D5-ethanol detected on breath: 2 mg/kg intravenous
T1 construct: from tissue; host or cells: in vivo, human subjects (healthy subjects and a lung cancer patient); endogenous enzyme
T1 sequence (P08236 23-651): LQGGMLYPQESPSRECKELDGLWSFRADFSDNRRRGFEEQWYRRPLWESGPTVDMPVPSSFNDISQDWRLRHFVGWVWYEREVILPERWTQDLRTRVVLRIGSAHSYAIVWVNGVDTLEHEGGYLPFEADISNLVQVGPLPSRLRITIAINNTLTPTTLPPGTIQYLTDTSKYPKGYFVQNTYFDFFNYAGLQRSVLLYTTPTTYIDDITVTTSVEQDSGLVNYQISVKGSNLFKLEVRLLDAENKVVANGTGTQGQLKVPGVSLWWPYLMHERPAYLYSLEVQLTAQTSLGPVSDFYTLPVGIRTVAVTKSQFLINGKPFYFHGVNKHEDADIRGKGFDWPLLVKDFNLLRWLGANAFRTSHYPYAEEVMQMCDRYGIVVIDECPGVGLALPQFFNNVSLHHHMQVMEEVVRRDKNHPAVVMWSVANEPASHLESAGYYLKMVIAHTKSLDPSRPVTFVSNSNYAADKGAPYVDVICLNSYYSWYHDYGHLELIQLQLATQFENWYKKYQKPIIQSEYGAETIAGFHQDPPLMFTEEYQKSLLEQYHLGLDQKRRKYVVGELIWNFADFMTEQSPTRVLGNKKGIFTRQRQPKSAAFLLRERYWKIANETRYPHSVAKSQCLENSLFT
Description: D5-ethyl-βD-glucuronide was administered to healthy subjects and a lung cancer patient at a concentration of 2 mg/kg. Administration was intravenous.
The concentration of the metabolite was then measured in breath samples. Breath samples were collected using ReCIVA® Breath Sampler at the indicated times following probe administration. Following breath collection sorbent tubes were removed from ReCIVA®, capped off and sent to Owlstone Medical for analysis. At Owlstone Medical the sorbent tubes were analysed for D5-ethanol using TD-GC-MS.

[1] = tested on: tumor specific extracellular β-glucuronidase; details: healthy versus tumor bearing mice; cited from earlier work
[2] = highest concentration tested (FIG. 2)

Structure (SMILES)	D5-ethanol production from blood cells (blood cells; [2])	D5-ethanol detected on breath (β-glucuronidase; healthy controls)	D5-ethanol detected on breath (β-glucuronidase; lung cancer patient (Stage IIA))	earliest time at which the metabolite (D5-ethanol) can be detected in breath after administration (β-glucuronidase; lung cancer patient, 2 mg/kg intravenous (FIG. 6))	D5-ethanol signal in breath [1]	D5-ethanol production from blood cells (blood cells; second highest concentration tested (FIG. 2))
[2H]C([2H])([2H])C([2H])([2H])O[C@@H]1O[C@H](C(=O)O)[C@@H](O)[C@H](O)[C@H]1O [D5-EG, D5-ethyl-βD-glucuronide]	only a small amount of D5-ethanol were produced	No D5-ethanol was detected	A D5 ethanol signal was detected	10 min	discriminatory D5-ethanol signal in the breath of mice with tumors	
[2H]C([2H])([2H])C([2H])([2H])O[C@@H]1O[C@H](C(=O)OC)[C@@H](O)[C@H](O)[C@H]1O [D5-EG-ME, D5-ethyl-βD-glucuronide-methyl ester]	much higher D5-ethanol levels produced					much higher D5-ethanol levels produced
